# Source: ChEMBL document CHEMBL5500395 (J Med Chem, 2024)
# Assay: Solubility of compound in PBS at pH 7.4 at 100 uM incubated for 120 mins by LC-MS/MS analysis
# Assay type: physicochemical
# Details: buffer, pH 7.4, 2 h
row,Structure (SMILES),solubility
1,N[C@H]1C[C@H](OC(=O)[C@@H]2[C@H]3C[C@H]4c5[nH]c6ccccc6c5CCN4C[C@@H]3CC[C@@H]2O)C1,Soluble
2,CC(C)OC(=O)[C@@H]1[C@H]2C[C@H]3c4[nH]c5ccccc5c4CCN3C[C@@H]2CC[C@@H]1O,Soluble
3,O=C(OC1COC1)[C@@H]1[C@H]2C[C@H]3c4[nH]c5ccccc5c4CCN3C[C@@H]2CC[C@@H]1O,Soluble
4,N[C@H]1C[C@@H](OC(=O)[C@@H]2[C@H]3C[C@H]4c5[nH]c6ccccc6c5CCN4C[C@@H]3CC[C@@H]2O)C1,Soluble
5,O=C(N[C@H]1CCNC1)[C@@H]1[C@H]2C[C@H]3c4[nH]c5ccccc5c4CCN3C[C@@H]2CC[C@@H]1O,Soluble
6,CNCCOC(=O)[C@@H]1[C@H]2C[C@H]3c4[nH]c5ccccc5c4CCN3C[C@@H]2CC[C@@H]1O,Soluble
7,O=C(O[C@H]1CCOC1)[C@@H]1[C@H]2C[C@H]3c4[nH]c5ccccc5c4CCN3C[C@@H]2CC[C@@H]1O,Soluble
8,CN1CC[C@H](OC(=O)[C@@H]2[C@H]3C[C@H]4c5[nH]c6ccccc6c5CCN4C[C@@H]3CC[C@@H]2O)C1,Soluble

# Continued, values first:
row,solubility,Structure (SMILES)
1,Soluble,O=C(OC[C@H]1CCN1)[C@@H]1[C@H]2C[C@H]3c4[nH]c5ccccc5c4CCN3C[C@@H]2CC[C@@H]1O
2,Soluble,O=C(OC[C@H]1CCNC1)[C@@H]1[C@H]2C[C@H]3c4[nH]c5ccccc5c4CCN3C[C@@H]2CC[C@@H]1O
3,Soluble,O=C(OC1CCNCC1)[C@@H]1[C@H]2C[C@H]3c4[nH]c5ccccc5c4CCN3C[C@@H]2CC[C@@H]1O
4,Soluble,O=C(OC[C@H]1CCCN1)[C@@H]1[C@H]2C[C@H]3c4[nH]c5ccccc5c4CCN3C[C@@H]2CC[C@@H]1O
5,Soluble,O=C(OC[C@@H]1CCNC1)[C@@H]1[C@H]2C[C@H]3c4[nH]c5ccccc5c4CCN3C[C@@H]2CC[C@@H]1O
6,Soluble,O=C(OC1CNC1)[C@@H]1[C@H]2C[C@H]3c4[nH]c5ccccc5c4CCN3C[C@@H]2CC[C@@H]1O
7,Soluble,CCOC(=O)[C@@H]1[C@H]2C[C@H]3c4[nH]c5ccccc5c4CCN3C[C@@H]2CC[C@@H]1O
8,Soluble,O=C(O[C@@H]1CCNC1)[C@@H]1[C@H]2C[C@H]3c4[nH]c5ccccc5c4CCN3C[C@@H]2CC[C@@H]1O
9,Soluble,O=C(O[C@H]1CCNC1)[C@@H]1[C@H]2C[C@H]3c4[nH]c5ccccc5c4CCN3C[C@@H]2CC[C@@H]1O
